Results published in US10344279B2, “Methods for the prevention and the treatment of extracapillary glomerulonephritis” (INSERM (Institut National de la Sante et de la Recherche …, priority 2014, dated 2019).
Entries after “also recorded” stand apart in the source; their conditions may differ.

How the values were obtained:
phospho-STAT3 (Tyr705) [1] = assay: Western blot of phospho-STAT3 in primary culture of podocytes; type: cell-based, mouse; conditions: 16 hours; AG1478 1 μM, anti-mIL-6 antibody 10 μg/mL, HB-EGF 10 ng/mL
Experimental: After 4 days of primary culture, podocytes were trypsinized then plated into μ-Dish 35 mm high with Culture-Insert (Ibidi). Ibidi's wounding inserts were used for cell migration studies. The coverage of the 500-μm gap was assessed after 12 hours of culture and podocyte migration area was quantified using ImageJ software. The effects of HB-EGF (10 ng/mL, Preprotech) or AG1478 (1 μM, Calbiochem) or anti-mIL-6 monoclonal antibody MP5-20F3 (10 μg/mL, eBiosciences) or Stattic (2 μM, Calbiochem) on differentiated podocytes was applied during 16 hours. After stimulation, podocytes were scrapped in Phosphosafe buffer for protein extraction or in RLT buffer for total RNA extraction.
After extraction from glomeruli or podocytes with lysis buffer, proteins were quantified by BCA protein assay kit (iNtRON Biotechnology). Samples were resolved on 4-12% Bis-Tris Criterion XT gels (Bio-Rad) then transferred to a polyvinylidene difloride membrane. Membranes were incubated with the appropriate primary antibodies: rabbit anti-phospho-EGFR (Tyr1068) (Cell Signaling Technology), rabbit anti-phospho-STAT3 (Tyr705) (Cell Signaling Technology), goat anti-p57 (Santa Cruz Biotechnology). Protein loading was monitored by using the rat anti-tubulin antibody (Abeam). […] Densitometric analysis with ImageJ software was used for quantification.

phospho-STAT3 (Tyr705) [2] = assay: Western blot of phospho-STAT3 in glomeruli / kidney cortex of NTS-challenged mice; type: in vivo; conditions: erlotinib 10 mg/kg/day; NTS-challenged mice
Experimental: Podocyte-specific disruption of Stat3 mice were generated by crossing podocin-Cre positive mice (63) with Stat3 floxed mice (64) on C57BL6/J background. Their age-matched littermates with no deletion of Stat3 in any cells are considered as controls. […] Stattic (25 mg/kg) was administered in i.p. way every other day for 10 days. 10 weeks old 129S2/SvPasCr male mice were randomly treated with Stattic and were compared to vehicle-treated (DMSO) littermates.
The glomerulonephritis was induced on male mice (10-12 weeks of age) by intravenous injection of 15 μL of sheep anti-glomerular basement membrane (GBM) nephrotoxic serum (NTS), which was diluted with 85 μL of sterile phosphate buffer solution. Serum injections were repeated twice (on days 2 and 3) at 6 μL/g of body weight and 7 μL/g respectively.
Mouse kidneys were extracted, minced, and digested in 2 mg/mL collagenase I solution (Gibco) in RPMI 1640 (Invitrogen) at 37° C. for 3 minutes, then filtered through a 70-μm cell strainer and one more through a 40-μm cell strainer. […] Podocyte outgrowth area was quantified at day 4 using ImageJ software.
After extraction from glomeruli or podocytes with lysis buffer, proteins were quantified by BCA protein assay kit (iNtRON Biotechnology). […] Protein loading was monitored by using the rat anti-tubulin antibody (Abeam). […] Densitometric analysis with ImageJ software was used for quantification.

phospho-EGFR (Tyr1068) = assay: Western blot of phospho-EGFR in kidney cortex of NTS-challenged mice; type: in vivo; conditions: erlotinib 10 mg/kg/day
Experimental: After extraction from glomeruli or podocytes with lysis buffer, proteins were quantified by BCA protein assay kit (iNtRON Biotechnology). […] Membranes were incubated with the appropriate primary antibodies: rabbit anti-phospho-EGFR (Tyr1068) (Cell Signaling Technology), rabbit anti-phospho-STAT3 (Tyr705) (Cell Signaling Technology), goat anti-p57 (Santa Cruz Biotechnology). Protein loading was monitored by using the rat anti-tubulin antibody (Abeam). Secondary antibodies were donkey-anti rabbit HRP and donkey-anti rabbit HRP (GE Healthcare Life Sciences). […] Densitometric analysis with ImageJ software was used for quantification.

COc1cc2ncnc(Nc3cccc(Cl)c3)c2cc1OC [AG1478]
STAT3 phosphorylation (Tyr705) in cultured primary podocytes (phospho-STAT3 (Tyr705) [1]): blunted; also recorded: decreased

C#Cc1cccc(Nc2ncnc3cc(OCCOC)c(OCCOC)cc23)c1 [erlotinib]
STAT3 phosphorylation in podocytes (phospho-STAT3 (Tyr705) [2]): blunted
EGFR phosphorylation in the kidney cortex (phospho-EGFR (Tyr1068)): efficiently blocked

B1: HB-EGF: heparin-binding epidermal growth factor-like growth factor, EGFR ligand (Preprotech) (protein, UniProt Q99075 63-148, looked up)
Heparin-binding EGF-like …: DLQEADLDLLRVTLSSKPQALATPNKEEHGKRKKKGKGLGKKRDPCLRKYKDFCIHGECKYVKELRAPSCICHPGYHGERCHGLSL
STAT3 phosphorylation (Tyr705) in cultured primary podocytes (phospho-STAT3 (Tyr705) [1]): enhanced
